Entries after “also recorded” stand apart in the source; their conditions may differ.
Assays:
[1] = system: cyclooxygenase isoforms; settings: background statement, selectivity controversial; cited from earlier work
[2] = system: vaginal smooth muscle; settings: earlier study WO2021091908A1; cited from earlier work
[3] = system: rat proximal vaginal smooth muscle tissue; assay: In vitro isometric tension, isolated organ bath: relaxation of EFS-induced contractions of proximal vagina strips; settings: for relaxation of EFS-induced contractions of proximal vagina strips compared to the vehicle control: 10 min incubation, two-way ANOVA; for pharmacological relaxant effect on rat proximal vaginal smooth muscle tissue (dose dependence): figure legend, 1, 10 and 100 µg/mL
Text: (§1) The following in vitro methodology was utilized to examine the concentration-dependent response of rat vaginal tissue, both proximal and distal, to CBDA and CBD following contraction by electrical field stimulation (similar to efferent neurostimulation in vivo).
(§2) Intact female Sprague-Dawley rats were anesthetized and vagina harvested. A maximum of eight vaginal strips (4 proximal and 4 distal) were obtained from each rat in circular direction and mounted in organ chambers filled with an oxygenated physiological salt solution.
(§3) Strips were excised from the tissue samples and connected to force transducers for isometric tension recording. Organ baths were filled with Krebs buffer maintained at 37° C. and bubbled with 95% O2 and 5% CO2, pH 7.4.
(§4) After the equilibration period, the strips were primed first by the addition to the organ bath of KCI (100 mM, 10 min) and then after a washing step, by stimulation to EFS (electrical parameters: 20 Hz, 3 ms, 10 s, 300 mA). After this priming period, the strips were washed and a baseline frequency response curve (FRC) was obtained (3 ms, 10 s, 300 mA, frequency at 1, 2, 4, 8, 16, 32, and 48 Hz, every 2 minutes). Then, 6 strips (3 proximal and 3 distal) were incubated with vehicle for 10 minutes before applying a second FRC. The remaining 2 strips (one proximal and one distal) served as a time-controls. After a washing step, a third FRC was applied after the incubation of the test compound at 1 µg/mL for a period of 10 min. This was repeated with the concentration of 10 µg/mL, and 100 µg/mL.
(§5) The experiments were performed following the general procedures described in Examples 1 and 2. The data are mean ± SEM of N experiments using vaginal strips from N different rats. p = ns, * p < 0.05, ** p < 0.01, *** p < 0.001, **** p < 0.0001, two-way ANOVA.
(§6) The experiments were performed following the general procedures described in Examples 1 and 2. The data are mean ± SEM of N experiments using vaginal strips from N different rats; p = ns, * p < 0.05, ** p < 0.01, *** p < 0.001, **** p < 0.0001, two-way ANOVA.
(§7) The comparison plots of the pharmacological relaxant effects of CBD and CBDA on rat vaginal smooth muscle tissue are shown in FIGS. 3, 4, and 5. Also, shown are the results of the evaluation of the differences in effects exerted by CBD and CBDA for statistical significance. The data are mean ± SEM of N experiments using vaginal strips from N different rats; p = ns, * p < 0.05, ** p < 0.01, *** p < 0.001, **** p < 0.0001, two-way ANOVA.

[4] = system: rat distal vaginal smooth muscle tissue; assay: In vitro isometric tension, isolated organ bath: relaxation of EFS-induced contractions of distal vagina strips; settings: for relaxation of EFS-induced contractions of distal vagina strips compared to the vehicle control: 10 min incubation, two-way ANOVA; for pharmacological relaxant effect on rat distal vaginal smooth muscle tissue (dose dependence): figure legend, 1, 10 and 100 µg/mL
Text: as §1, §2, §3, §4, §5, §6, §7

[5] = pKa estimate by comparison to olivetolic acid; assay type: physicochemical; settings: estimated by comparison to olivetolic acid; not reported
[6] = system: rat vaginal smooth muscle; assay: Relaxation of precontracted rat vaginal smooth muscle (summary statement); settings: dose-dependent manner; tissue region not specified
Text: as §1, §2, §3
as §4, with “After a washing step, a third FRC was applied after the incubation of the test compound at 1 µg/mL for a period of 10 min. This was repeated with the concentration of 10 µg/mL, and 100 µg/mL.” left out

[7] = background statement; cited from earlier work

| SMILES | activity against cyclooxygenase (COX-1/COX-2) [1] | relaxation of vaginal smooth muscle [2] | relaxation of EFS-induced contractions of proximal vagina strips compared to the vehicle control ([3]; 10 µg/mL) | relaxation of EFS-induced contractions of proximal vagina strips compared to the vehicle control ([3]; 100 µg/mL) | pharmacological relaxant effect on rat proximal vaginal smooth muscle tissue (dose dependence) [3] | relaxation of EFS-induced contractions of distal vagina strips compared to the vehicle control ([4]; 1 µg/mL) | relaxation of EFS-induced contractions of distal vagina strips compared to the vehicle control ([4]; 10 µg/mL) | relaxation of EFS-induced contractions of distal vagina strips compared to the vehicle control ([4]; 100 µg/mL) | pharmacological relaxant effect on rat distal vaginal smooth muscle tissue (dose dependence) [4] | pKa [5] | effectiveness at relaxing a precontracted rat vaginal smooth muscle, relative to CBD [6] | pharmacological relaxant effect of CBDA compared with CBD, proximal vaginal smooth muscle ([3]; 1 µg/mL, FIG. 3A) | pharmacological relaxant effect of CBDA compared with CBD, proximal vaginal smooth muscle ([3]; 10 µg/mL, FIG. 4A) | pharmacological relaxant effect of CBDA compared with CBD, proximal vaginal smooth muscle ([3]; 100 µg/mL, FIG. 5A) | permeability relative to CBD [7] | pharmacological relaxant effect of CBDA compared with CBD, distal vaginal smooth muscle ([4]; 1 µg/mL, FIG. 3B) | pharmacological relaxant effect of CBDA compared with CBD, distal vaginal smooth muscle ([4]; 10 µg/mL, FIG. 4B) | pharmacological relaxant effect of CBDA compared with CBD, distal vaginal smooth muscle ([4]; 100 µg/mL, FIG. 5B) |
| --- | --- | --- | --- | --- | --- | --- | --- | --- | --- | --- | --- | --- | --- | --- | --- | --- | --- | --- |
| C=C(C)[C@@H]1CCC(C)=C[C@H]1c1c(O)cc(CCCCC)cc1O [CBD, (-)-trans-cannabidiol, reference compound] | much weaker or no activity | statistically-significant relaxation | statistically-significant relaxation | statistically-significant relaxation | statistically significant, dose-dependent pharmacological relaxant effect | statistically-significant relaxation; also recorded: statistically significant relaxation | statistically-significant relaxation; also recorded: statistically significant relaxation | statistically-significant relaxation; also recorded: statistically significant relaxation | statistically significant, dose-dependent pharmacological relaxant effect |  |  |  |  |  |  |  |  |  |
| C=C(C)[C@@H]1CCC(C)=C[C@H]1c1c(O)cc(CCCCC)c(C(=O)O)c1O [CBDA, (1′R,2′R)-2,6-dihydroxy-5′-methyl-4-pentyl-2′-(prop-1-en-2-yl)-1′,2′,3′,4′-tetrahydro[1,1′-biphenyl]-3-carboxylic acid] | inhibitor of cyclooxygenase isoforms |  |  |  | statistically significant, dose-dependent pharmacological relaxant effect |  | statistically-significant relaxation | statistically-significant relaxation | statistically significant, dose-dependent pharmacological relaxant effect | ~3.4 | significantly more effective than CBD | stronger | stronger | stronger | substantially higher | no statistically significant difference | stronger | stronger |
